Reference: article PMC5431781, “Structural studies of the periplasmic portion of the diguanylate cyclase CdgH from Vibrio cholerae” (Scientific Reports, 2017)
Read-outs that look alike come from different tables or passages of the source.

Assays:
[1] = molecular target: PBPb-I domain of CdgH (residues 46–250) (Vibrio cholerae, UniProt Q9KT38); assay type: binding
LAOBP = molecular target: LAOBP; design: method as in PMID 1400387; details: cited from earlier work

Sequence of PBPb-I domain of CdgH (residues 46–250) (Q9KT38 46-250 limits assumed): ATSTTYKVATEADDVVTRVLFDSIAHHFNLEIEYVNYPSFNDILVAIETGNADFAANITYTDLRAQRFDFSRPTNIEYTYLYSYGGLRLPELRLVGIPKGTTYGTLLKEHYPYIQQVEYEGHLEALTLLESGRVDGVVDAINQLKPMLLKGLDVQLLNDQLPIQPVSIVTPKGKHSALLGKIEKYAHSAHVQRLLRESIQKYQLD

Row | SMILES | ΔH ([1]; pH 8) | also measured
1 | N=C(N)NCCC[C@H](N)C(=O)O [L-Arg, L-arginine] | -12.87 ± 0.04 kcal/mol | Kd (LAOBP): 14 nM
2 | NC(=O)CC[C@H](N)C(=O)O [L-Gln, L-glutamine] | -3.57 ± 1.02 kcal/mol | 
3 | N[C@@H](Cc1c[nH]cn1)C(=O)O [L-His, L-histidine] | -7.90 ± 0.28 kcal/mol | 
4 | NCCCC[C@H](N)C(=O)O [L-Lys, L-lysine] | -6.02 ± 0.05 kcal/mol | binding affinity weaker than that with L-arginine [1]: about 18 fold
5 | NCCC[C@H](N)C(=O)O [L-Orn, L-ornithine] | -3.61 ± 0.08 kcal/mol | Ka ([1]; pH 8): 240000 ± 33700 M⁻¹; Kd ([1]; pH 8, read-out: Kd): 4170 nM
6 | N[C@@H](CC(=O)O)C(=O)O [L-aspartate] |  | Kd ([1]; pH 8): no measurable binding affinity
